Source: US11339171B2, “MDM2 inhibitors” (Gan & Lee Pharmaceuticals, priority 2017, dated 2022)
Where two headings read alike, the source gives them in different places.

What was measured:
[1] = system: human osteosarcoma cell line SJSA-1; assay: Inhibition of proliferation of human osteosarcoma cell line SJSA-1 (DAPI staining, In Cell Analyzer); conditions: for inhibitory effect on human osteosarcoma cell line SJSA-1 compared with positive control compound HDM201: labels are Example numbers, the compounds with S-configuration are meant
MDM2 = molecular target: T1, MDM2 (Homo sapiens, UniProt Q00987); assay: Inhibition test of MDM2-P53 (GST-MDM2, Biotin-P53, Anti-GST-Tb, SA-XL665); format: binding; conditions: labels are Example numbers; the compounds with S-configuration are meant
T1 construct: made in house
How it was run: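 Binding was measured by TR-FRET with GST-MDM2 at 4 nM final in PBS with 0.1% BSA, 5 mM DTT and 1 mM AEBSF. Compounds were tested as twelve-point 5-fold dilutions and incubated with the detection mix for 90 min at 25 °C with shaking before plate-reader reading and curve fitting.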

[2] = Homo sapiens, SJSA-1, 72 h, read-out: IC50 (nM), inhibitory activity on proliferation of human osteosarcoma cell line SJSA-1, SJSA-1, incubated 72 h

T1 sequence (Q00987 whole entry): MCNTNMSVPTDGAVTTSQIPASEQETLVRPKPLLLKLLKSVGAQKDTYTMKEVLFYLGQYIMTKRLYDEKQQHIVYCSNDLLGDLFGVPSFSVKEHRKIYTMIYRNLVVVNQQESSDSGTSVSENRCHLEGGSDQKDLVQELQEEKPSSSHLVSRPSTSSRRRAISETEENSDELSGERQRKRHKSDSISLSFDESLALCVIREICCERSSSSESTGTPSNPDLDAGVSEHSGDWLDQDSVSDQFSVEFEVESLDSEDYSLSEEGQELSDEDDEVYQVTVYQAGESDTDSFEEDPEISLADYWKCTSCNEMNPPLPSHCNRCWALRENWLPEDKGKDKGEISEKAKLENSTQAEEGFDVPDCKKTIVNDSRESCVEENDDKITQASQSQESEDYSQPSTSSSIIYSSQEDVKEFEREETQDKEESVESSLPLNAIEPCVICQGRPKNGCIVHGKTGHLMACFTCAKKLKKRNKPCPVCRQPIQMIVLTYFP

| Structure (SMILES) | inhibitory effect on human osteosarcoma cell line SJSA-1 compared with positive control compound HDM201 [1] | inhibitory effect on MDM2 compared with positive control compound HDM201 (MDM2) | other results |
| --- | --- | --- | --- |
| COc1ncc(-c2nc3c(n2C(C)C)C2(C(=O)Nc4cc(Cl)ccc42)N(c2cc(Cl)ccc2C)C3=O)c(OC)n1 (stereo not drawn) [Example 2, 6-chloro-5′-(5-chloro-2-methylphenyl)-2′-(2,4-dimethoxypyrimidin-5-yl)-3′-isopropyl-3′H-spiro[dihydroindole-3,4′-pyrrolo[3,4-d]imidazole]-2,6′(5′H)-dione] | better | better |  |
| COc1cc(OC)c(-c2nc3c(n2C(C)C)C2(C(=O)Nc4cc(Cl)ccc42)N(c2cc(Cl)ccc2C)C3=O)cn1 (stereo not drawn) [Example 11, 6-chloro-5′-(5-chloro-2-methylphenyl)-2′-(4,6-dimethoxypyridin-3-yl)-3′-isopropyl-3′H-spiro[dihydroindole-3,4′-pyrrolo[3,4-d]imidazole]-2,6′(5′H)-dione] | better | better |  |
| CCc1ccc(Cl)cc1N1C(=O)c2nc(-c3cnc(OC)nc3OC)n(C(C)C)c2C12C(=O)Nc1cc(Cl)ccc12 (stereo not drawn) [Example 15, 6-chloro-5′-(5-chloro-2-ethylphenyl)-2′-(2,4-dimethoxypyrimidin-5-yl)-3′-isopropyl-3′H-spiro[dihydroindole-3,4′-pyrrolo[3,4-d]imidazole]-2,6′(5′H)-dione] | better | better |  |
| COc1ccc(C(=O)N(C)C)cc1-c1nc2c(n1C(C)C)C1(C(=O)Nc3cc(Cl)ccc31)N(c1cc(Cl)ccc1C)C2=O (stereo not drawn) [Example 22, 3-(6-chloro-5′-(5-chloro-2-methylphenyl)-3′-isopropyl-2,6′-dioxo-5′,6′-dihydro-3′H-spiro[dihydroindole-3,4′-pyrrolo[3,4-d]imidazole]-2′-yl)-4-methoxy-N,N-dimethylbenzamide] | better | better |  |
| COc1ncc(-c2nc3c(n2C(C)C)C2(C(=O)Nc4cc(Cl)ccc42)N(c2cc(Cl)cnc2C)C3=O)c(OC)n1 (stereo not drawn) [Example 42, 6-chloro-5′-(5-chloro-2-methylpyridin-3-yl)-2′-(2,4-dimethoxypyrimidin-5-yl)-3′-isopropyl-3′H-spiro[dihydroindole-3,4′-pyrrolo[3,4-d]imidazole]-2,6′(5′H)-dione] | better | better |  |
| COc1ncc(-c2nc3c(n2C(C)C)C2(C(=O)Nc4cc(Cl)ccc42)N(c2cc(F)cc(Cl)c2)C3=O)c(OC)n1 (stereo not drawn) [Example 45, 6-chloro-5′-(3-chloro-5-fluorophenyl)-2′-(2,4-dimethoxypyrimidin-5-yl)-3′-isopropyl-3′H-spiro[dihydroindole-3,4′-pyrrolo[3,4-d]imidazole]-2,6′(5′H)-dione] | better | better |  |
| COc1cc(N)ccc1-c1nc2c(n1C(C)C)C1(C(=O)Nc3cc(Cl)ccc31)N(c1cc(Cl)ccc1C)C2=O (stereo not drawn) [Example 49, 2′-(4-amino-2-methoxyphenyl)-6-chloro-5′-(5-chloro-2-methylphenyl)-3′-isopropyl-3′H-spiro[dihydroindole-3,4′-pyrrolo[3,4-d]imidazole]-2,6′(5′H)-dione] | better | better |  |
| COc1cc(C2CC2)cc(OC)c1-c1nc2c(n1C(C)C)C1(C(=O)Nc3cc(Cl)ccc31)N(c1cc(Cl)ccc1C)C2=O (stereo not drawn) [Example 108, 6-chloro-5′-(5-chloro-2-methylphenyl)-2′-(4-cyclopropyl-2,6-dimethoxyphenyl)-3′-isopropyl-3′H-spiro[dihydroindole-3,4′-pyrrolo[3,4-d]imidazole]-2,6′(5′H)-dione] | better |  |  |
| COc1nc(N2CCCC2)ncc1-c1nc2c(n1C(C)C)C1(C(=O)Nc3cc(Cl)ccc31)N(c1cc(Cl)ccc1C)C2=O (stereo not drawn) [Example 114] | better |  |  |
| CCN(C)c1ncc(-c2nc3c(n2C(C)C)C2(C(=O)Nc4cc(Cl)ccc42)N(c2cc(Cl)ccc2C)C3=O)c(OC)n1 (stereo not drawn) [Example 119, 6-chloro-5′-(5-chloro-2-methylphenyl)-2′-(2-(ethyl(methyl)amino)-4-methoxypyrimidin-5-yl)-3′-isopropyl-3′H-spiro[dihydroindole-3,4′-pyrrolo[3,4-d]imidazole]-2,6′(5′H)-dione] | better |  |  |
| COc1nc(C2CC2)ncc1-c1nc2c(n1C(C)C)C1(C(=O)Nc3cc(Cl)ccc31)N(c1cc(Cl)ccc1C)C2=O (stereo not drawn) [Example 121, 6-chloro-5′-(5-chloro-2-methylphenyl)-2′-(2-cyclopropyl-4-methoxypyrimidin-5-yl)-3′-isopropyl-3′H-spiro[dihydroindole-3,4′-pyrrolo[3,4-d]imidazole]-2,6′(5′H)-dione] | better |  |  |
| CCOc1ncc(-c2nc3c(n2C(C)C)C2(C(=O)Nc4cc(Cl)ccc42)N(c2cc(Cl)ccc2C)C3=O)c(OC)n1 (stereo not drawn) [Example 127] | better |  |  |
| COc1nc(OCC(F)(F)F)ncc1-c1nc2c(n1C(C)C)C1(C(=O)Nc3cc(Cl)ccc31)N(c1cc(Cl)ccc1C)C2=O (stereo not drawn) [Example 141, 6-chloro-5′-(5-chloro-2-methylphenyl)-3′-isopropyl-2′-(4-methoxy-2-(2,2,2-trifluoroethoxy)pyrimidin-5-yl)-3′H-spiro[dihydroindole-3,4′-pyrrolo[3,4-d]imidazole]-2,6′(5′H)-dione] | better |  |  |
| COc1cc(C2CC2)ccc1-c1nc2c(n1C(C)C)C1(C(=O)Nc3cc(Cl)ccc31)N(c1cc(Cl)cnc1C)C2=O (stereo not drawn) [Example 145, 6-chloro-5′-(5-chloro-2-methylpyridin-3-yl)-2′-(4-cyclopropyl-2-methoxyphenyl)-3′-isopropyl-3′H-spiro[dihydroindole-3,4′-pyrrolo[3,4-d]imidazole]-2,6′(5′H)-dione] | better |  |  |
| CCOc1ccc(-c2nc3c(n2C(C)C)C2(C(=O)Nc4cc(Cl)ccc42)N(c2cc(Cl)ccc2C)C3=O)c(OC)n1 (stereo not drawn) [Example 146, 6-chloro-5′-(5-chloro-2-methylphenyl)-2′-(6-ethoxy-2-methoxypyridin-3-yl)-3′-isopropyl-3′H-spiro[dihydroindole-3,4′-pyrrolo[3,4-d]imidazole]-2,6′(5′H)-dione] | better |  |  |
| COc1nc(N(C)C)ccc1-c1nc2c(n1C(C)C)C1(C(=O)Nc3cc(Cl)ccc31)N(c1cc(Cl)ccc1C)C2=O (stereo not drawn) [Example 157, 6-chloro-5′-(5-chloro-2-methylphenyl)-2′-(6-(dimethylamino)-2-methoxypyridin-3-yl)-3′-isopropyl-3′H-spiro[dihydroindole-3,4′-pyrrolo[3,4-d]imidazole]-2,6′(5′H)-dione] | better |  |  |
| COc1nc(C2CC2)ncc1-c1nc2c(n1C(C)C)C1(C(=O)Nc3cc(Cl)ccc31)N(c1cc(Cl)cnc1C)C2=O (stereo not drawn) [Example 159, 6-chloro-5′-(5-chloro-2-methylpyridin-3-yl)-2′-(2-cyclopropyl-4-methoxypyrimidin-5-yl)-3′-isopropyl-3′H-spiro[dihydroindole-3,4′-pyrrolo[3,4-d]imidazole]-2,6′(5′H)-dione] | better |  |  |
| COc1cc(N(C)CCO)ccc1-c1nc2c(n1C(C)C)C1(C(=O)Nc3cc(Cl)ccc31)N(c1cc(Cl)ccc1C)C2=O (stereo not drawn) [Example 162, 6-chloro-5′-(5-chloro-2-methylphenyl)-2′-(4-((2-hydroxyethyl)(methyl)amino)-2-methoxyphenyl)-3′-isopropyl-3′H-spiro[dihydroindole-3,4′-pyrrolo[3,4-d]imidazole]-2,6′(5′H)-dione] | better |  |  |
| COc1nc(C(C)C)ncc1-c1nc2c(n1C(C)C)C1(C(=O)Nc3cc(Cl)ccc31)N(c1cc(Cl)ccc1C)C2=O (stereo not drawn) [Example 172, 6-chloro-5′-(5-chloro-2-methylphenyl)-3′-isopropyl-2′-(2-isopropyl-4-methoxypyrimidin-5-yl)-3′H-spiro[dihydroindole-3,4′-pyrrolo[3,4-d]imidazole]-2,6′(5′H)-dione] | better |  |  |
| COc1ccc(-c2nc3c(n2C(C)C)[C@]2(C(=O)Nc4cc(Cl)ccc42)N(c2cccc(Cl)c2)C3=O)c(OC)c1 [Example R-36, (R)-6-chloro-5′-(3-chlorophenyl)-2′-(2,4-dimethoxyphenyl)-3′-isopropyl-3′H-spiro[dihydroindole-3,4′-pyrrolo[3,4-d]imidazole]-2,6′(5′H)-dione] |  |  | IC50 [1, 2]: 3180 nM |
| COc1ccc(-c2nc3c(n2C(C)C)[C@@]2(C(=O)Nc4cc(Cl)ccc42)N(c2cccc(Cl)c2)C3=O)c(OC)c1 [Example S-36, (S)-6-chloro-5′-(3-chlorophenyl)-2′-(2,4-dimethoxyphenyl)-3′-isopropyl-3′H-spiro[dihydroindole-3,4′-pyrrolo[3,4-d]imidazole]-2,6′(5′H)-dione] |  |  | IC50 [1, 2]: 83.8 nM; IC50 ([1]; read-out: IC50 (nM), inhibitory activity on proliferation of human osteosarcoma cell line SJSA-1, SJSA-1, incubated 72 h): 72.3 nM |
| COc1ccncc1-c1nc2c(n1C(C)C)[C@@]1(C(=O)Nc3cc(Cl)ccc31)N(c1ccc(F)c(Cl)c1)C2=O [Example S-59, (S)-6-chloro-5′-(3-chloro-4-fluorophenyl)-3′-isopropyl-2′-(4-methoxypyridin-3-yl)-3′H-spiro[dihydroindole-3,4′-pyrrolo[3,4-d]imidazole]-2,6′(5′H)-dione] |  |  | IC50 [1, 2]: 263 nM |
